These results are taken from patent US20160058304A1, “SYSTEM AND METHOD FOR VESSEL ARCHITECTURAL IMAGING” (priority 2013, published 2016).

The subject of assay [1] is recurrent glioblastomas. Nature of the assay: Phase II clinical trial of cediranib in recurrent glioblastoma, retrospective VAI (MRI) analysis. It counts as in vivo, human. From the text: The study was approved by the institutional review board and informed consent was obtained from all subjects. Subject data included 13 females and 17 males diagnosed with a recurrent glioblastoma, average age 52 years, range 20-78 years. After study termination, nine subjects received one subsequent cycle of salvage chemotherapy, eight subjects received two cycles, one subject received three cycles, two subjects had undisclosed information on salvage chemotherapy and one subject received stereotactic radiosurgery.
Baseline MRI examinations were acquired prior to therapy onset (days −5 and −1), and then repeated on days 1, 28, 56 and 112 after cediranib (AstraZeneca Pharmaceuticals) anti-angiogenic therapy onset or until disease progression according to the Macdonald criteria. All imaging were performed on a 3 Tesla Magnetom Trio MRI system (Siemens Medical Solutions) as follows:
4. Dynamic susceptibility contrast (DSC) perfusion images. Axial dual-echo echo-planar images with repetition-time 1.33 s, echo-times 34 ms and 103 ms, slice-thickness 5 mm, inter-slice distance 2.5 mm, in-plane resolution 1.70:1.70 mm, matrix size 128:128, 10 slices and 120 volumes. After approximately 85 s of imaging, a 0.2 mmol kg−1 dose of Gd-DTPA was injected at 5 cc s−1.
We obtained relaxation rate curves for VAI analysis, perfusion values, blood volumes and mean transit times using established tracer kinetic models on the DSC images, corrected for contrast agent leakage (from blood-brain-barrier breakdown or resection) and fitted to a gammavariate curve for better visualization of vessel vortex effects. It has been speculated that contrast agent leakage is the reason for the clockwise vortex effect. […] Here, the pre-dose of Gd-DTPA during DCE imaging saturated potential leaky tumor tissue in the DSC images thereby minimizing the influence of leakage-induced T1-shortening effects. Relaxation rate curves not suited for analysis, conveying highly fluctuating time-courses from partial volume effects, voxel shifts and physiological pulsations were excluded from further analysis. Across all 30 subjects, an average of 78.21 percent±12.78 percent (standard deviation) of all tumor voxels met the inclusion criteria. To account for potential global systemic effects from hypertension, tumor relaxation rate curves were scaled with corresponding slice-specific mean, normal-tissue reference curves. In all figures showing vessel vortex curves, the tails of the vortex curves have been cut short to better visualize vortex direction. VAI analysis was performed using custom-made software in Matlab and traditional MRI was analyzed in nordicICE (NordicNeuroLab AS).
A subject was assumed to have an increase (decrease) in voxels with a clockwise vortex direction if the clockwise- to counter-clockwise ratio was higher (lower) than the 95 percent confidence interval of the population arithmetic mean for two consecutive imaging time points. […] Differences in VAI parameters during therapy were assessed using pairwise Wilcoxons Signed Rank test. Differences in tumor volumes, vessel caliber, permeability, perfusion and mean transit times were assessed using Mann-Whitney tests. Associations between changes in vessel vortex direction ratios and progression-free survival and overall survival were assessed using multinomial logistic regression, Kaplan-Meier survival analysis and Cox regression after adjustments for age, extent of resection, neurological performance, salvage chemotherapy and stereotactic radiosurgery after study termination as well as changes in permeability (Ktrans), T1-weighted contrast-enhanced tumor volume and T2-weighted FLAIR tumor volume prior to, and during, anti-angiogenic therapy. For all tests, P=0.05 was considered significant (with Holm-Bonferroni correction for multiple comparisons) and pixel values below a 5 percent percentile and above a 95 percent percentile were removed prior to analysis to reduce the influence of outliers. […]

Assay [2] has as its system recurrent glioblastomas. The following applies: background statement on cediranib trial; cited from earlier work.

As for `COc1cc2c(Oc3ccc4[nH]c(C)cc4c3F)ncnc2cc1OCCCN1CCCC1` [cediranib], the “Relative number of image voxels with a clockwise vortex direction in the tumor after therapy onset” value in the assay with recurrent glioblastomas [1] (30 subjects collectively, pair-wise Wilcoxons Signed Ranks test P<0.05) is “significant increase”. For the same compound, the “Median overall survival, nonresponders” value in the assay with recurrent glioblastomas [1] (non-responders = relative decrease in image voxels with clockwise vortex direction, recurrent glioblastoma) turned out to be 146 days. Also, in the assay on recurrent glioblastomas [1] (non-responders with stable or reduced perfusion, P<0.001), the “Median overall survival, non-responding patients” value was determined as 169 days. In the assay on recurrent glioblastomas [1] (responders = relative increase in image voxels with clockwise vortex direction at two consecutive imaging time points, recurrent glioblastoma), the “Median overall survival, responding subjects” value was found to be 341 days. The “Longer survival of responding vs non-responding patients” value in the assay on recurrent glioblastomas [1] (responders by increased perfusion vs non-responders) is listed as “approximately 6 months”. Moreover, the “Shunt index values at days 1 and 28” value in the assay on recurrent glioblastomas [1] (responders by vascular normalization compared to non-responders, P<0.05) is given as “reduced”. In addition, in the assay with recurrent glioblastomas [1] (responders identified by increased perfusion (vascular normalization), P<0.001), the “Median overall survival, responding patients” value was 348 days. Also, the “Contrast enhanced and FLAIR tumor volumes at day 28” value in the assay with recurrent glioblastomas [1] (responders vs non-responders, Mann-Whitney P<0.05) is recorded as “significant reductions”. Also, the “Whole-tumor vessel calibers compared to pre-treatment” value with recurrent glioblastomas [1] (responding subjects, P<0.01) is recorded as “significant reductions”. Moreover, the “Longer survival of patients whose tumor perfusion increased during treatment” value in the assay with recurrent glioblastomas [2] was “approximately 6 months”.
